From patent US20210198259A1, “HETEROCYCLIC DERIVATIVES AND USE THEREOF” (C&C RESEARCH LABORATORIES, priority 2018, published 2021)

What was measured:
[1] = molecular target: T1, human histamine 4 receptor (hH4R) (Homo sapiens, UniProt Q9H3N8); assay: Binding affinity of human histamine 4 receptor (hH4R), [3H] histamine displacement; conditions: [3H] labeled histamine, hH4R-overexpressed cell membrane
T1 construct: purchased Multispan
Experimental: The compounds prepared in the above Examples, the compound of Example 55 of International Publication No. WO 2010/030785 and the compound of Example 4 of International Publication No. WO 2013/048214 were diluted by 1,000 fold (v/w) with DMSO, and then 1 mL of the diluted compound solution was mixed with 99 mL of the analysis buffer solution (50 mM tris-HCl pH 7.4, 5 mM EDTA) to obtain concentration of 1 μM. […] of the prepared compound solution was transferred to each well of a 96-well plate, and then 20 mL of 100 μM histamine diluted with analysis buffer solution and 1% DMSO were transferred to each well to calculate non-specific binding and total binding degree. 15 μg of human histamine 4 receptor-overexpressed cell membrane (Multispan) was diluted into […] of analysis buffer solution and that was transferred to each well. [^3H] labeled histamine (PerkinElmer) was diluted into 10 nM concentration, 20 mL was allocated in each well, and then it was kept in a 27° C. incubator for 30 minutes. After the reaction, 100 mL of the mixture was transferred to a glass fiber plate in which 0.5% polyethylene amine was pre-soaked, and then non-binding [^3H] labeled histamine was removed in vacuum. After 6 times washing with 200 mL of washing buffer solution (50 mM tris-HCl, pH 7.4), the plate was dried in a 37° C. oven for 18 hours. […] of betaScint cocktail solution was added to each well, and after 10 minutes CPM (count per minute) value of [^3H] labeled histamine was measured by the use of Micro beta2™. The binding affinity (% inhibition) of the human histamine 4 receptor for the compounds of the present invention was analyzed by an Excel program, and the results of analysis are represented in Table 1.

[2] = Test for pharmacokinetics in ICR mice (oral); assay type: in vivo; conditions: 50 mg/kg, ICR mouse, 5 mg/mL solution at 10 mL/kg, plasma
Experimental: As the administration solution for mice of the compounds prepared in the above
Examples, the compound of Example 55 of International Publication No. WO 2010/030785 and the compound of Example 4 of International Publication No. WO 2013/048214, 20% hydroxypropyl-β-cyclodextrin solution (99.75%) and 2N HCl (0.25%) were added sequentially to make 5 mg/mL. Provided that in the case of the compound of Example 10, 99.5% of 20% hydroxypropyl-β-cyclodextrin solution and 0.5% of 2N HCl […] were added.
The weight of each ICR mouse was properly 20-30 g. Dosage of the compound of the present invention was 10 mL/kg, and administered orally using Zonde. Blood collection was performed at 0.5, 1, 2, 4, 7 and 24 hours by orbital venous blood collection using a capillary tube coated with an anticoagulant, and then plasma was isolated using a centrifuge and kept in a freezer.
Plasma collected from animals and standard concentration material were pre-treated using solid-phase extraction, and concentration of the compound of the invention was determined using a liquid chromatography mass spectrometer (Agilent HPLC, API-4000 Qtrap). According to the resulting concentration value, the pharmacokinetics parameter was found using WinNonlin (Version 7.0) and half-life (t1/2), maximum blood concentration (Cmax) and area under the curve (AUCall) are represented in Table 2.

[3] = tested on: ICR mice; assay: Histamine-induced itching model in ICR mice; assay type: in vivo, mouse; conditions: 50 mg/kg oral, scratches counted for 20 minutes
Experimental: Female, ICR mice (8 weeks old) were purchased from OrientBio Co., Ltd. The animals were housed under conditions of controlled temperature (23±3° C.), humidity (50±5%) and lighting with food and water available ad libitum. Water and food were stopped 1 hour before the experiment.
For easy intradermal injection of pruritogen (histamine, dissolved in saline injection solution to make the concentration of 300 nmol per 40 μL) the hair was clipped using clippers (8000AD, THRIVE) over the rostral part of the back 24 hours before the experiment under inhalation anesthesia with isoflurane. Mice (n=10 per group) were divided into 5 groups (normal group, control group and 3 experimental groups). […] At the end of the filming, the number of scratches of the test animals was counted during 20 minutes after histamine administration using the recorded video. The number of scratches was counted a series of actions from scratching with the rear foot of the animal to the time of taking the rear foot to the mouth as one time (J. Allergy Clin. Immunol. 2007, 19(1), 176-183). All data were analyzed by using Excel and Prism, and the number of scratching of each group is expressed as the mean±S.E.M. The inhibitory effect of compounds is shown as a percentage of the maximal response to histamine (100% control group). Statistical analysis was analyzed using one-way ANOVA with Dunnett test. […]

Human histamine 4 receptor (hH4R) binding affinity (% inhibition at 1 μM) [1]: 95.8% | AUC [2]: 30500 ng·h/mL | Cmax [2]: 2500 ng/mL
Structure (SMILES): CNC1CN(C2=Nc3ccc(Br)cc3N3CC(=O)N=C23)C1 [Example 13, 8-bromo-4-(3-(methylamino)azetidin-1-yl)imidazo[1,2-a]quinoxalin-2(1H)-one]
Inhibitory rate (%) After 30 minutes ([3]; histamine given 30 minutes after dosing): 131% | Inhibitory rate (%) After 7 hours ([3]; histamine given 7 hours after dosing): 99.0%
